Results on 2 molecules are retold here after paper PMC11249626, “Fluorophore-Labeled Pyrrolones Targeting the Intracellular Allosteric Binding Site of the Chemokine Receptor CCR1” (ACS Pharmacology & Translational Science, 2024).

A word on the pKi: it is the negative decadic logarithm of the Ki, by convention in mol/L.

Test [1] concerns the target T1, CCR1 (Homo sapiens, UniProt P32246).
T1 sequence (P32246 1-355): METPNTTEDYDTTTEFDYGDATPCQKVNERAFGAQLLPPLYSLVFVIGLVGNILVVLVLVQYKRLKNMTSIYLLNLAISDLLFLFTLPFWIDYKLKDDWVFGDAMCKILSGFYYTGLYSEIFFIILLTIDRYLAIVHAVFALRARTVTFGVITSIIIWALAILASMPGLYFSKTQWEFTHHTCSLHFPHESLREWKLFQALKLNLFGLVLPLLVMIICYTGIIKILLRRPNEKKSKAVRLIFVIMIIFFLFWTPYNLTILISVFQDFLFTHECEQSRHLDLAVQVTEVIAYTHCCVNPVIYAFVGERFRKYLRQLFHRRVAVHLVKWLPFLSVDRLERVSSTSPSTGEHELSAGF
In words: Membrane-based radioligand binding assay with [3H]-CCR2-RA-[R], U2OS membranes. To be noted: for pKi: read-out: Ki, CCR1 (radioligand). How it is done:
(§1) Membrane-based radioligand binding assays: Assays were performed according to the published protocol.13 Radioligand binding assays were performed in a 100 µ L reaction volume containing varying concentrations (final concentrations: 0.001 – 10 µM) of compounds 23 and 5, 6 nM [3H]-CCR2-RA-[R] (specific activity 60.6 Ci mmol-1, custom labeled by Vitrax in Placentia, CA, USA), and 15 µg membrane protein, all diluted in assay buffer (50mM Tris-HCl, 5 mM MgCl2, 0.1% CHAPS, at pH 7.4). Membranes were obtained from Tango™ CCR1-bla or Tango™ CCR2-bla osteosarcoma (U2OS) cells stably expressing the human CCR1 ([…]) or human CCR2b (U2OS-CCR2) cells (Invitrogen, Carlsbad, CA, USA). Total binding was determined in the absence of competing ligand, while non -specific binding was determined in the presence of 10 µM CCR2-RA-[R]. After membrane addition, reaction mixtures were incubated for 2 h at 25 °C while shaking. After 2 h, reactions were terminated by harvesting through a 96 -well GF/C filter plate using a PerkinElmer Filtermate harvester (PerkinElmer, Groningen, NL) and ice -cold wash buffer (50mM Tris-HCl, 5 mM MgCl2, 0.1% CHAPS, at pH 7.4). Afterwards, filter plate was dried, and radioactivity was measured in a P-E-2450 Microbeta2 scintillation plate counter (PerkinElmer, Groningen, NL) after addition of 25 µL of Microscint scintillation cocktail (PerkinElmer, Groningen, NL). […]
(§2) Technologies) for 20 min. […]
(§3) Finally, the top 5% of the identified hits were subsequently docked to a homology model of CCR1 (vide infra). After visual examination of the obtained binding modes 24 hit compounds were identified for further investigation .
(§4) Molecular docking: For the docking studies in the course of our virtual screening campaign, the CCR1 protein was […]
(§5) 27, 28 CCR1 structure was optimized using the Quickprep and structure preparation wizard in MOE 24 using CHARMM27 forcefield. The protein was saved in mol2 format and loaded in GOLD.25, 26 The amino acids defining the IABS were listed in a text file to define the docking cavity. 50 GA runs were performed for docking CCR2-RA-[R] (4-[R]) and SN_12 (43), with the generated solutions clustered based on their RMSD with the threshold set to 0.75 Å using the complete linkage method. Docking runs were performed using ChemScore. Flexibility of amino acids Lys63ICL1, Arg1313.50, Leu2406.36 and Arg3078.49 was taken in consideration in the docking runs, with conformational sampling of their side chains being done by the rotamer libraries implemented in GOLD.25, 26 For the docking studies with our ligand-linker conjugates (Figure S1), molecular ligand structures were geometry optimized as neutral molecules by means of Avogadro (Version 1.2.0)29 using the Universal Force Field (UFF) and the Steepest Decent Algorithm until convergence (ΔE = 0).
(§6) CCR113 was used for docking. The compounds were docked by means of AutoDock Vina 1.1.2.30, 31 An exhaustiveness value of 8 and a search space of 22 x 22 x 22 Å³ was applied around the unliganded intracellular allosteric binding site of CCR1. Twenty docking poses were generated for each ligand and inspected manually and according to the docking score.

Test [2] concerns the target T2, human CCR2b (Homo sapiens, UniProt P41597).
T2 sequence (P41597 1-360 isoform P41597-2): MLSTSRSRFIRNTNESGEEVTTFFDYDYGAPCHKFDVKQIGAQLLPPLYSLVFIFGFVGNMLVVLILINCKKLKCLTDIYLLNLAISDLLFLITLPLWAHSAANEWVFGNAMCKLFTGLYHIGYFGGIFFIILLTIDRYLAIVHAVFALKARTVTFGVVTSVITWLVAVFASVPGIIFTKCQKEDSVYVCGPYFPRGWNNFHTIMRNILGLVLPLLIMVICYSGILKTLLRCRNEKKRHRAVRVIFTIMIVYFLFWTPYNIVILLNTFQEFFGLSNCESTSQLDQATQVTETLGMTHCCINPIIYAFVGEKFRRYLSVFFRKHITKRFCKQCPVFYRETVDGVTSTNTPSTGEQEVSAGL
The description is as above. The note with it: [3H]CCR2-RA-[R] 6 nM, 25 °C; for pKi: read-out: Ki, CCR2 (radioligand). The method, then: as §1, §2, §3, §4, §5, §6

The structures appear in SMILES notation. pKi: −log10 of the molar value. Like-named read-outs stand apart in the source and are kept apart here.

On to `O=C(C1=C(O)C(=O)N(CCc2ccc(O)cc2)C1c1ccc(F)cc1)c1ccccc1` (racemic) [compound 23], for which the “CCR1 over CCR2 binding selectivity (radioligand)” value in test [1] is 33 fold. The pKi in test [1] ([3H]CCR2-RA-[R] 6 nM, 25 °C) is 6.93; in test [2], 5.42.
Take `CC(=O)C1=C(O)C(=O)N(c2ccc(Br)cc2F)C1C1CCCCC1` (stereo not shown) [compound 5, reference compound]: the negative logarithm of the Ki (pKi) in test [1] ([3H]CCR2-RA-[R] 6 nM, 25 °C) is 7.74; in test [2], 8.05. Also, the Ki was 15.8 nM in test [1] ([3H]CCR2-RA-[R] 6 nM, 25 °C, read-out: pKi, CCR1 (radioligand) (converted)) and 7.94 nM in test [2] (read-out: pKi, CCR2 (radioligand) (converted)).
